This assay concerns canine genes differentially expressed in organs (liver, spleen, kidney, testes, heart, thymus). The assay is described as follows: Transcriptome profiling / differential display of tissues from canines exposed to an agent versus vehicle (reverse transcription, PCR, reamplification of bands, sequencing). Format: in vivo.

From patent publication US7091033B2, “Array of toxicologically relevant canine genes and uses thereof” (Phase-1 Molecular Toxicology, Inc., priority 2000, dated 2006) come the findings set out here.

With `N.N.O=C([O-])C1(C(=O)[O-])CCC1.[Pt+2]` [carboplatin], the “Expression Pattern” value reads like this: (Band # CTP28D, Homo sapiens upstream INM_014517) “repressed in carboplatin”; (Band # CTP30E, Homo sapiens BAC clone AC003083) “repressed in carboplatin”; (Band # CTP58A, No significant match) “repressed with carboplatin”; (Band # CTP60B, Homo sapiens RNA bindii XM_016120) “repressed with carbo and trans platin”; (Band # CTP65A, Pig mRNA for endoplasm X16951) “repressed with carbo and trans platin”; (Band # CTP71A, Canis familiaris caveolin- U47060) “induced with carboplatin”. Also, the “Expression Pattern” value is “repressed with carbo, trans and cisplatin” (Band # CTP74A, No significant match); “repressed with carbo, trans and cisplatin” (Band # CTP75C, No significant match); “repressed with carbo, trans and cisplatin” (Band # CTP85D, Homo sapiens Rho-assoc XM_008814); “repressed with carbo and transplatin” (Band # CTP122I, Human mRNA for KIAA0(D26067)); “induced with carboplatin” (Band # CTP178B, Homo sapiens mRNA for AB040957); “induced with carboplatin” (Band # CTP179K, No significant match). Also, the “Expression Pattern” value was “induced with carbo and trans platin” (Band # CTP185C, No significant match); “induced with carboplatin” (Band # CTP197A, No significant match); “induced with carboplatin” (Band # CTP201B, Homo sapiens, exostoses BC001174); “induced with carboplatin” (Band # CTP202C, No significant match); “induced with carboplatin” (Band # CTP205D, Homo sapiens similar to XM_011187); “repressed with carbo and transplatin” (Band # CTP206A, Homo sapiens fatty acid c NM_013402). Besides, under “dog, in vivo”, the “Expression Pattern” value is “repressed with carbo and trans platin”.

For the molecule `CC(=O)Oc1ccccc1C(=O)O` [aspirin], the “Expression Pattern” value was “upregulated with Etoposide, caffeine” (Band # CTP1D, No significant match); “upregulated with Etoposide, caffeine” (Band # CTP1G, No significant match); “doublet-larger band is upregulated” (Band # CTP3B, Homo Sapien N-myc dow BC003175, larger band of doublet); “repressed with caffeine and aspirin” (Band # CTP25D, No significant match); “repressed with caffeine and aspirin” (Band # CTP26A, Canis familiaris chymase U89607); “repressed with caffeine and aspirin” (Band # CTP26B, H. sapiens cycA gene for X68303). The “Expression Pattern” value is, setting by setting: (Band # CTP27C, Homo sapiens CTCL turn AF177227) “repressed with etoposide and aspirin”; (Band # CTP32D, cDNA FLJ14795 fls, clone AK027701) “repressed with caffeine and aspirin”; (Band # CTP144B, No significant match) “repressed with caffeine and aspirin”; (Band # CTP145B, No significant match) “repressed with aspirin”; (Band # CTP148B, Homo sapiens serine-thre AF108830) “induced with aspirin”; (Band # CTP161B, Canis familiaris TCTA ger AJ012166) “induced with aspirin”. Also, the “Expression Pattern” value runs as follows: (Band # CTP164A, No significant match) “induced with aspirin”; (Band # CTP215B, No significant match) “induced with aspirin”; (Band # CTP222D, No significant match) “induced with aspirin”.
